Reference: patent US10807986B2, “Fused pyrimidine compound or salt thereof” (TAIHO PHARMACEUTICAL CO., LTD., priority 2016, dated 2020)

Assay: Evaluation of stability in liver microsome
Settings: mouse liver microsome 0.25 mg/mL, test compound 1 μM, 37° C., 30 minutes

Remaining (%)	Compound
0	Nc1ncnc2c1c(C(=O)Nc1ccc(Oc3ccccc3)cc1)cn2C1CCCC1 [Compound 2 of Comparative Examples, 4-amino-7-cyclopentyl-N-(4-phenoxyphenyl)-7H-pyrrolo[2,3-d]pyrimidine-5-carboxamide, reference compound]
64	COCc1ccc(NC(=O)c2cn(C(C)(C)C)c3ncnc(N)c23)cc1 [Example 2, 4-amino-7-(tert-butyl)-N-(4-(methoxymethyl)phenyl)-7H-pyrrolo[2,3-d]pyrimidine-5-carboxamide]
54	COCc1ccc(NC(=O)c2cn(C(C)(C)C)c3ncnc(N)c23)cc1F [Example 30, 4-amino-7-(tert-butyl)-N-(3-fluoro-4-(methoxymethyl)phenyl)-7H-pyrrolo[2,3-d]pyrimidine-5-carboxamide]
57	COCc1ccc(NC(=O)c2cn(C(C)(C)C)c3ncnc(N)c23)c(OC)c1 [Example 33, 4-amino-7-(tert-butyl)-N-(2-methoxy-4-(methoxymethyl)phenyl)-7H-pyrrolo[2,3-d]pyrimidine-5-carboxamide]
58	[2H]C([2H])([2H])OCc1ccc(NC(=O)c2cn(C(C)(C)C)c3ncnc(N)c23)cc1 [Example 35, 4-amino-7-(tert-butyl)-N-(4-((methoxy-d3)-methyl)phenyl)-7H-pyrrolo[2,3-d]pyrimidine-5-carboxamide]
73	COCc1ccc(NC(=O)c2cn(C3(C)CC3)c3ncnc(N)c23)cc1 [Example 36, 4-amino-N-(4-(methoxymethyl)phenyl)-7-(1-methylcyclopropyl)-7H-pyrrolo[2,3-d]pyrimidine-5-carboxamide]
56	COCc1ccc(NC(=O)c2cn(C(C)(C)CF)c3ncnc(N)c23)cc1F [Example 41, 4-amino-7-(1-fluoro-2-methylpropan-2-yl)-N-(3-fluoro-4-(methoxymethyl)phenyl)-7H-pyrrolo[2,3-d]pyrimidine-5-carboxamide]
66	COCc1ccc(NC(=O)c2cn(C3(CF)CC3)c3ncnc(N)c23)cc1 [Example 45, 4-amino-7-(1-(fluoromethyl)cyclopropyl)-N-(4-(methoxymethyl)phenyl)-7H-pyrrolo[2,3-d]pyrimidine-5-carboxamide]
65	COCc1ccc(NC(=O)c2cn(C3(C(F)F)CC3)c3ncnc(N)c23)cc1 [Example 46, 4-amino-7-(1-(difluoromethyl)cyclopropyl)-N-(4-(methoxymethyl)phenyl)-7H-pyrrolo[2,3-d]pyrimidine-5-carboxamide]
58	COCc1ccc(NC(=O)c2cn(C3(C)CC3)c3ncnc(N)c23)cc1F [Example 48, 4-amino-N-(3-fluoro-4-(methoxymethyl)phenyl)-7-(1-methylcyclopropyl)-7H-pyrrolo[2,3-d]pyrimidine-5-carboxamide]
67	COCc1ccc(NC(=O)c2cn(C3(C4CC4)CC3)c3ncnc(N)c23)cc1 [Example 49, 7-{[1,1-bi(cyclopropane)]-1-yl}-4-amino-N-(4-(methoxymethyl)phenyl)-7H-pyrrolo[2,3-d]pyrimidine-5-carboxamide]
53	COCc1ccc(NC(=O)c2cn(C(C)(C)C(F)F)c3ncnc(N)c23)cc1 [Example 50, 4-amino-7-(1,1-difluoro-2-methylpropan-2-yl)-N-(4-(methoxymethyl)phenyl)-7H-pyrrolo[2,3-d]pyrimidine-5-carboxamide]
56	COCc1ccc(NC(=O)c2c(Br)n(C3(C)CC3)c3ncnc(N)c23)cc1 [Example 55, 4-amino-6-bromo-N-[4-(methoxymethyl)phenyl]-7-(1-methylcyclopropyl)-7H-pyrrolo[2,3-d]pyrimidine-5-carboxamide]
62	COCc1ccc(NC(=O)c2c(Cl)n(C3(C)CC3)c3ncnc(N)c23)cc1 [Example 56, 4-amino-6-chloro-N-[4-(methoxymethyl)phenyl]-7-(1-methylcyclopropyl)-7H-pyrrolo[2,3-d]pyrimidine-5-carboxamide]
86	COCc1ccc(NC(=O)c2c(OC)n(C3(C)CC3)c3ncnc(N)c23)cc1 [Example 57, 4-amino-6-methoxy-N-[4-(methoxymethyl)phenyl]-7-(1-methylcyclopropyl)-7H-pyrrolo[2,3-d]pyrimidine-5-carboxamide]
81	COCc1ccc(NC(=O)c2c(C)n(C(C)(C)C)c3ncnc(N)c23)cc1 [Example 60, 4-amino-7-(tert-butyl)-N-(4-(methoxymethyl)phenyl)-6-methyl-7H-pyrrolo[2,3-d]pyrimidine-5-carboxamide]

Remaining (%)	Compound
81	COCc1ccc(NC(=O)c2c(-c3cccnc3)n(C3(C)CC3)c3ncnc(N)c23)cc1 [Example 61, 4-amino-N-(4-(methoxymethyl)phenyl)-7-(1-methylcyclopropyl)-6-(pyridin-3-yl)-7H-pyrrolo[2,3-d]pyrimidine-5-carboxamide]
89	COCc1ccc(NC(=O)c2c(C(C)=O)n(C3(C)CC3)c3ncnc(N)c23)cc1 [Example 64, 6-acetyl-4-amino-N-(4-(methoxymethyl)phenyl)-7-(1-methylcyclopropyl)-7H-pyrrolo[2,3-d]pyrimidine-5-carboxamide]
79	C=Cc1c(C(=O)Nc2ccc(COC)cc2)c2c(N)ncnc2n1C1(C)CC1 [Example 65, 4-amino-N-(4-(methoxymethyl)phenyl)-7-(1-methylcyclopropyl)-6-vinyl-7H-pyrrolo[2,3-d]pyrimidine-5-carboxamide]
69	COCc1ccc(NC(=O)c2c(F)n(C3(C)CC3)c3ncnc(N)c23)cc1 [Example 69, 4-amino-6-fluoro-N-(4-(methoxymethyl)phenyl)-7-(1-methylcyclopropyl)-7H-pyrrolo[2,3-d]pyrimidine-5-carboxamide]
50	CC(C)(C)n1cc(C(=O)Nc2ccc(-c3cc[nH]n3)cc2)c2c(N)ncnc21 [Example 80, N-(4-(1H-pyrazol-3-yl)phenyl)-4-amino-7-(tert-butyl)-7H-pyrrolo[2,3-d]pyrimidine-5-carboxamide]
66	COCc1ccc(NC(=O)c2c(C#CCC(C)(C)O)n(C3(C)CC3)c3ncnc(N)c23)cc1 [Example 86, 4-amino-6-(4-hydroxy-4-methylpent-1-yn-1-yl)-N-[4-(methoxymethyl)phenyl]-7-(1-methylcyclopropyl)-7H-pyrrolo[2,3-d]pyrimidine-5-carboxamide]
63	COCc1ccc(NC(=O)c2c(C#CC3CCOCC3)n(C3(C)CC3)c3ncnc(N)c23)cc1 [Example 87, 4-amino-N-[4-(methoxymethyl)phenyl]-7-(1-methylcyclopropyl)-6-((tetrahydro-2H-pyran-4-yl)ethynyl)-7H-pyrrolo[2,3-d]pyrimidine-5-carboxamide]
59	COCc1ccc(NC(=O)c2c(C#CCN3CCCC3)n(C3(C)CC3)c3ncnc(N)c23)cc1 [Example 88, 4-amino-N-[4-(methoxymethyl)phenyl]-7-(1-methylcyclopropyl)-6-(3-(pyrrolidin-1-yl)prop-1-yn-1-yl)-7H-pyrrolo[2,3-d]pyrimidine-5-carboxamide]
69	COCc1ccc(NC(=O)c2c(OC[C@H]3CCCO3)n(C3(C)CC3)c3ncnc(N)c23)cc1 [Example 89, (R)-4-amino-N-[4-(methoxymethyl)phenyl]-7-(1-methylcyclopropyl)-6-((tetrahydrofuran-2-yl)methoxy)-7H-pyrrolo[2,3-d]pyrimidine-5-carboxamide]
67	COCc1ccc(NC(=O)c2c(C#Cc3cnn(C)c3)n(C3(C)CC3)c3ncnc(N)c23)cc1 [Example 90, 4-amino-N-[4-(methoxymethyl)phenyl]-6-((1-methyl-1H-pyrazol-4-yl)ethynyl)-7-(1-methylcyclopropyl)-7H-pyrrolo[2,3-d]pyrimidine-5-carboxamide]
65	COCc1ccc(NC(=O)c2c(C#Cc3cnc4cccnn34)n(C3(C)CC3)c3ncnc(N)c23)cc1 [Example 91, 4-amino-6-(imidazo[1,2-b]pyridazin-3-ylethynyl)-N-[4-(methoxymethyl)phenyl]-7-(1-methylcyclopropyl)-7H-pyrrolo[2,3-d]pyrimidine-5-carboxamide]
67	COCc1ccc(NC(=O)c2c(C#Cc3ccn(C)n3)n(C3(C)CC3)c3ncnc(N)c23)cc1 [Example 92, 4-amino-N-(4-(methoxymethyl)phenyl)-6-((1-methyl-1H-pyrazol-3-yl)ethynyl)-7-(1-methylcyclopropyl)-7H-pyrrolo[2,3-d]pyrimidine-5-carboxamide]
53	COCc1ccc(NC(=O)c2c(C#Cc3cncn3C)n(C3(C)CC3)c3ncnc(N)c23)cc1 [Example 93, 4-amino-N-(4-(methoxymethyl)phenyl)-6-((1-methyl-1H-imidazol-5-yl)ethynyl)-7-(1-methylcyclopropyl)-7H-pyrrolo[2,3-d]pyrimidine-5-carboxamide]
60	COCc1ccc(NC(=O)c2c(C#Cc3cccnc3)n(C3(C)CC3)c3ncnc(N)c23)cc1 [Example 94, 4-amino-N-[4-(methoxymethyl)phenyl]-7-(1-methylcyclopropyl)-6-(pyridin-3-ylethynyl)-7H-pyrrolo[2,3-d]pyrimidine-5-carboxamide]
71	COCc1ccc(NC(=O)c2c(OC[C@@H](C)OC)n(C3(C)CC3)c3ncnc(N)c23)cc1 [Example 96, (R)-4-amino-N-(4-(methoxymethyl)phenyl)-6-(2-methoxypropoxy)-7-(1-methylcyclopropyl)-7H-pyrrolo[2,3-d]pyrimidine-5-carboxamide]
70	COCc1ccc(NC(=O)c2c(OC[C@@H]3CCCO3)n(C3(C)CC3)c3ncnc(N)c23)cc1 [Example 97, (S)-4-amino-N-(4-(methoxymethyl)phenyl)-7-(1-methylcyclopropyl)-6-((tetrahydrofuran-2-yl)methoxy)-7H-pyrrolo[2,3-d]pyrimidine-5-carboxamide]

Compound	Remaining (%)
COCc1ccc(NC(=O)c2c(OCC(C)C)n(C3(C)CC3)c3ncnc(N)c23)cc1 [Example 99, 4-amino-6-isobutoxy-N-(4-(methoxymethyl)phenyl)-7-(1-methylcyclopropyl)-7H-pyrrolo[2,3-d]pyrimidine-5-carboxamide]	51
